Measurements published in the NIST ThermoML archive (doi:10.1016/j.jct.2011.08.016).
Numbers after ± are expanded uncertainties.

Settings: Liquid, Vibrating tube method

## CCCCCCC [heptane]
313.18 K, 1000 kPa
  mass density: 668.09 ± 0.43 kg/m3
313.18 K, 2000 kPa
  mass density: 669.03 ± 0.44 kg/m3
313.18 K, 3000 kPa
  mass density: 669.97 ± 0.44 kg/m3
313.18 K, 4000 kPa
  mass density: 670.93 ± 0.45 kg/m3
313.18 K, 5010 kPa
  mass density: 671.9 ± 0.45 kg/m3
313.18 K, 6000 kPa
  mass density: 672.87 ± 0.46 kg/m3
313.18 K, 7000 kPa
  mass density: 673.86 ± 0.47 kg/m3
313.18 K, 8000 kPa
  mass density: 674.87 ± 0.47 kg/m3
313.18 K, 9000 kPa
  mass density: 675.87 ± 0.48 kg/m3
313.18 K, 10000 kPa
  mass density: 676.86 ± 0.49 kg/m3
313.18 K, 11000 kPa
  mass density: 677.85 ± 0.49 kg/m3
313.18 K, 12000 kPa
  mass density: 678.83 ± 0.5 kg/m3
313.18 K, 13000 kPa
  mass density: 679.81 ± 0.51 kg/m3
313.18 K, 14000 kPa
  mass density: 680.76 ± 0.51 kg/m3
313.18 K, 15000 kPa
  mass density: 681.7 ± 0.52 kg/m3
313.18 K, 16000 kPa
  mass density: 682.62 ± 0.53 kg/m3
313.18 K, 17000 kPa
  mass density: 683.53 ± 0.53 kg/m3
313.18 K, 18000 kPa
  mass density: 684.41 ± 0.54 kg/m3
313.18 K, 19000 kPa
  mass density: 685.26 ± 0.55 kg/m3
313.18 K, 20000 kPa
  mass density: 686.11 ± 0.56 kg/m3
313.18 K, 21000 kPa
  mass density: 686.92 ± 0.57 kg/m3
313.18 K, 22000 kPa
  mass density: 687.67 ± 0.57 kg/m3
313.18 K, 23000 kPa
  mass density: 688.42 ± 0.58 kg/m3
313.18 K, 23910 kPa
  mass density: 689.07 ± 0.59 kg/m3
313.18 K, 25000 kPa
  mass density: 689.85 ± 0.59 kg/m3
333.04 K, 1000 kPa
  mass density: 650.66 ± 0.43 kg/m3
333.04 K, 2000 kPa
  mass density: 651.8 ± 0.44 kg/m3
333.04 K, 3000 kPa
  mass density: 652.94 ± 0.45 kg/m3
333.04 K, 4000 kPa
  mass density: 654.08 ± 0.45 kg/m3
333.04 K, 5000 kPa
  mass density: 655.23 ± 0.46 kg/m3
333.04 K, 6000 kPa
  mass density: 656.38 ± 0.46 kg/m3
333.04 K, 7000 kPa
  mass density: 657.54 ± 0.47 kg/m3
333.04 K, 8000 kPa
  mass density: 658.65 ± 0.48 kg/m3
333.04 K, 9000 kPa
  mass density: 659.81 ± 0.48 kg/m3
333.04 K, 10000 kPa
  mass density: 660.92 ± 0.49 kg/m3
333.04 K, 11000 kPa
  mass density: 662.03 ± 0.5 kg/m3
333.04 K, 12000 kPa
  mass density: 663.1 ± 0.51 kg/m3
333.04 K, 13000 kPa
  mass density: 664.2 ± 0.51 kg/m3
333.04 K, 14000 kPa
  mass density: 665.25 ± 0.52 kg/m3
333.04 K, 15000 kPa
  mass density: 666.31 ± 0.53 kg/m3
333.04 K, 16000 kPa
  mass density: 667.33 ± 0.54 kg/m3
333.04 K, 17000 kPa
  mass density: 668.33 ± 0.54 kg/m3
333.04 K, 18030 kPa
  mass density: 669.34 ± 0.55 kg/m3
333.04 K, 19000 kPa
  mass density: 670.26 ± 0.56 kg/m3
333.04 K, 20000 kPa
  mass density: 671.2 ± 0.57 kg/m3
333.04 K, 22000 kPa
  mass density: 673.01 ± 0.58 kg/m3
333.04 K, 23000 kPa
  mass density: 673.86 ± 0.59 kg/m3
333.04 K, 24000 kPa
  mass density: 674.7 ± 0.6 kg/m3
333.04 K, 25000 kPa
  mass density: 675.52 ± 0.61 kg/m3
353.06 K, 1010 kPa
  mass density: 632.6 ± 0.44 kg/m3
353.06 K, 2000 kPa
  mass density: 634.02 ± 0.44 kg/m3
353.06 K, 3000 kPa
  mass density: 635.41 ± 0.45 kg/m3
353.06 K, 4000 kPa
  mass density: 636.78 ± 0.46 kg/m3
353.06 K, 5000 kPa
  mass density: 638.15 ± 0.46 kg/m3
353.06 K, 6000 kPa
  mass density: 639.47 ± 0.47 kg/m3
353.06 K, 7000 kPa
  mass density: 640.8 ± 0.48 kg/m3
353.06 K, 8000 kPa
  mass density: 642.1 ± 0.48 kg/m3
353.06 K, 9010 kPa
  mass density: 643.4 ± 0.49 kg/m3
353.06 K, 10000 kPa
  mass density: 644.66 ± 0.5 kg/m3
353.06 K, 11000 kPa
  mass density: 645.92 ± 0.5 kg/m3
353.06 K, 12000 kPa
  mass density: 647.13 ± 0.51 kg/m3
353.06 K, 13000 kPa
  mass density: 648.37 ± 0.52 kg/m3
353.06 K, 14000 kPa
  mass density: 649.56 ± 0.53 kg/m3
353.06 K, 15000 kPa
  mass density: 650.72 ± 0.54 kg/m3
353.06 K, 16000 kPa
  mass density: 651.88 ± 0.54 kg/m3
353.06 K, 17000 kPa
  mass density: 653 ± 0.55 kg/m3
353.06 K, 18030 kPa
  mass density: 654.12 ± 0.56 kg/m3
353.06 K, 19000 kPa
  mass density: 655.16 ± 0.57 kg/m3
353.06 K, 20000 kPa
  mass density: 656.22 ± 0.58 kg/m3
353.06 K, 21000 kPa
  mass density: 657.27 ± 0.59 kg/m3
353.06 K, 22000 kPa
  mass density: 658.25 ± 0.59 kg/m3
353.06 K, 23000 kPa
  mass density: 659.24 ± 0.6 kg/m3
353.06 K, 24000 kPa
  mass density: 660.2 ± 0.61 kg/m3
353.06 K, 25000 kPa
  mass density: 661.14 ± 0.62 kg/m3
